Measured values from US20240398812A1 (Caraway Therapeutics, Inc., priority 2021, published 2024).

How the values were obtained:
human TRPML1 = human TRPML1 (Homo sapiens, UniProt Q9GZU1); test: Fluorescent TRPML1 assay (Fluo4-AM calcium fluorescence, HEK-293 Trex cells); assay type: cell-based
Method: (§1) HEK-293 Trex cells were stably transfected with a construct consisting of the human coding sequence for TRPML1 cloned into the tet-inducible plasmid pCDNA5 T/O. Mutations were introduced into the TRPML1 sequence to facilitate expression on the cell surface (Silvia Vergarajauregui, Rosa Puertollano Traffic. 2006 March; 7 (3): 337-353). Briefly, the cells are cultured in 150 mm round tissue culture dishes containing 20 mL of media. The day before the assay the cells are rinsed with DPBS —Ca—Mg and then treated briefly with Trypsin-EDTA. The Trypsin-EDTA is diluted with growth media, and cells are counted. 38×10^6 cells are re-plated into 150 mm round tissue culture dishes in media containing 0.5 ug/mL doxycycline to induce expression of hTRPML1.
(§2) The day of the experiment cells are lifted from the plates as above and collected by centrifugation. The cells are then suspended in dye loading buffer consisting of Ringer's solution supplemented with 0.1% Pluronic Acid and 1 micromolar Fluo4-AM dye. Cells are loaded for ˜60 minutes in the dark with occasional mixing. The cells are collected by centrifugation, the loading media aspirated, and the cells resuspended in 25 mL Ringer's solution and incubated ˜60 minutes in the dark. The cells are again collected by centrifugation, rinsed in Ringer's Solution and resuspended to 0.2×10^6 cells/mL in modified Ringer's solution containing 10 mM calcium.
(§3) Compounds are dissolved to a concentration of 10 millimolar with DMSO. Compound plates are created by dispensing compounds into 384 well black wall clear bottom plates (Greiner 781091). Positive and negative controls are included on each plate. Typically, different amounts of each compound are tested ranging from 100 nanoMoles (20 micromolar final concentration) decreasing in half-log steps to 31 picoMoles (6 nanomolar final concentration). Each concentration is typically tested in triplicate.
(§4) 50 microliters of dye-loaded cells are dispensed into each well of the compound assay plate created above. The fluorescence in each well is then determined with an excitation wavelength of 480 nm and an emission wavelength of 540 nm using either a Molecular Devices SpectraMax multimode plate reader or a Hamamatsu FDSS/uCell plate imager.
(§5) The resulting fluorescence for each well is exported as an ascii file and loaded into our LIMS for analysis. The percent activity of each compound at each concentration is determined by comparison to the positive and negative control wells included in each plate.
(§6) EC50 values were calculated using a non-linear regression of Prism. In the table, “A” indicates an EC50 of less than 100 nM, “B” indicates an EC50 range from 100 nM to 500 nM; “C” indicates an EC50 range from 500 nM to 2 μM; and “D” indicates an EC50 greater than 2 μM.

TRPML3 = biological target: T1, TRPML3 (Homo sapiens, UniProt Q8TDD5); test: Fluorescent TRPML3 assay (as for TRPML1); assay type: cell-based
T1 construct: expressed in transfected cells
T1 sequence (Q8TDD5 1-553): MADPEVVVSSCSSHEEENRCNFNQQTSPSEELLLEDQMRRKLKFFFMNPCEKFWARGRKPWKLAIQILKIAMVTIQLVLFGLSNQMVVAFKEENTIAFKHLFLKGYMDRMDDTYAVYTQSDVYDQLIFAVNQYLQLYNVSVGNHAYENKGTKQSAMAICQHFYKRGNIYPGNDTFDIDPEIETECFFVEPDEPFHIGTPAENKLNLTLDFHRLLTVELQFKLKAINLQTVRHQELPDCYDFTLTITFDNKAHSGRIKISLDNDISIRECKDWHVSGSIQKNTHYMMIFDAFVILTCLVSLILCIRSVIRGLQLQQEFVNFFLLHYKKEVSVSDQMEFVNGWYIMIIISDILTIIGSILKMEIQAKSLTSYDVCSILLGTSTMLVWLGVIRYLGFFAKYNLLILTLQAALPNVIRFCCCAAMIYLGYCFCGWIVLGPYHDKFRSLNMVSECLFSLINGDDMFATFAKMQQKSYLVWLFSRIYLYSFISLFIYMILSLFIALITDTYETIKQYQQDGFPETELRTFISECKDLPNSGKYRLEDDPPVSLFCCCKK
Method: as §1, §2, §3, §4, §5
Assays for TRPML2 and TRPML3 were performed as above for TRPML1, by substituting the appropriate TRPML2 or TRPML3 subtype for the TRPML1.
as §6

Chain of human TRPML1 (Q9GZU1 whole entry L15A/L16A/L577A/L578A, form open): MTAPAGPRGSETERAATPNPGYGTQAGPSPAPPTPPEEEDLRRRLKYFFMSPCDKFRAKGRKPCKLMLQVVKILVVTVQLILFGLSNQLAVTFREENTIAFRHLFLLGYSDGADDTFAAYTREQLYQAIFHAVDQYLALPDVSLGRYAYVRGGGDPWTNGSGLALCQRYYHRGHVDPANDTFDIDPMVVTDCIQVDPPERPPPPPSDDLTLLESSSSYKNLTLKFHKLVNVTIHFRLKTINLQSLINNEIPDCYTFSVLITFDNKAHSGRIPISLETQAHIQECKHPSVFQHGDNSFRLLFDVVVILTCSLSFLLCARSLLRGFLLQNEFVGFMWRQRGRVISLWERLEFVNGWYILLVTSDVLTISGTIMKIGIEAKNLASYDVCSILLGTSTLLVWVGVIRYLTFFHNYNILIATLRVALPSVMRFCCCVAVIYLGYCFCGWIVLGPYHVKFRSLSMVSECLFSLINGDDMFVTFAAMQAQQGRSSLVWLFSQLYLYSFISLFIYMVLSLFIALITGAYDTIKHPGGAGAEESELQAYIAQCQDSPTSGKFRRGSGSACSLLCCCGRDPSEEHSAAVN

| SMILES | EC50 (human TRPML1; Table 3, compounds 101-177) | EC50 (TRPML3; Table 3, compounds 101-177) | EC50 (human TRPML1; Table 3, compounds 201-283) | EC50 (TRPML3; Table 3, compounds 201-283) |
| --- | --- | --- | --- | --- |
| CC(C)C(=O)N1CCN(c2ncnc3c2c(-c2ccccn2)cn3-c2cc(C#N)ccn2)C[C@H]1C [Compound 132, (R)-2-(4-(4-isobutyryl-3-methylpiperazin-1-yl)-5-(pyridin-2-yl)-7H-pyrrolo[2,3-d]pyrimidin-7-yl)isonicotinonitrile] | 500 to 2000 nM | 500 to 2000 nM | – | – |
| C[C@@H]1CN(c2ncnc3c2c(C2CCC2)cn3-c2cc(C#N)ccn2)[C@@H](C)CN1C(=O)C1(F)CC1 [Compound 236, 2-(5-cyclobutyl-4-((2S,5R)-4-(1-fluorocyclopropane-1-carbonyl)-2,5-dimethylpiperazin-1-yl)-7H-pyrrolo[2,3-d]pyrimidin-7-yl)isonicotinonitrile] | – | – | < 100 nM | < 100 nM |
| CC(C)C(=O)N1CCN(c2ncnc3c2c(-c2ccccc2F)cn3-c2cc(C#N)ccn2)[C@H](C)C1 [Compound 138, (R)-2-(5-(2-fluorophenyl)-4-(4-isobutyryl-2-methylpiperazin-1-yl)-7H-pyrrolo[2,3-d]pyrimidin-7-yl)isonicotinonitrile] | 100 to 500 nM | < 100 nM | – | – |
| CC(C)C(=O)N1CCN(c2ncnc3c(-c4cc(C#N)ccn4)cn(-c4ccccn4)c23)[C@@H](C)C1 [Compound 211, (S)-2-(4-(4-isobutyryl-2-methylpiperazin-1-yl)-5-(pyridin-2-yl)-5H-pyrrolo[3,2-d]pyrimidin-7-yl)isonicotinonitrile] | – | – | > 2000 nM | > 2000 nM |
| CC(C)C(=O)N1CCN(c2ncnc3c2c(-c2ccccc2)cn3-c2cc(C#N)ccn2)C[C@H]1C [Compound 119, (R)-2-(4-(4-isobutyryl-3-methylpiperazin-1-yl)-5-phenyl-7H-pyrrolo[2,3-d]pyrimidin-7-yl)isonicotinonitrile] | < 100 nM | < 100 nM | – | – |
| C[C@@H]1CN(c2ncnc3c2c(N2CCC2)cn3-c2cc(F)cc(F)c2)[C@@H](C)CN1C(=O)C(C)(C)C [Compound 217, 1-((2R,5S)-4-(5-(azetidin-1-yl)-7-(3,5 difluorophenyl)-7H-pyrrolo[2,3-d]pyrimidin-4-yl)2,5-dimethylpiperazin-1-yl)-2,2-dimethylpropan-1-one] | – | – | < 100 nM | 100 to 500 nM |
| C[C@H]1CN(C(=O)C(C)(C)F)CCN1c1ncnc2c1c(-c1ccccc1F)cn2-c1cc(C#N)ccn1 [Compound 125, (S)-2-(4-(4-(2-fluoro-2-methylpropanoyl)-2-methylpiperazin-1-yl)-5-(2-fluorophenyl)-7H-pyrrolo[2,3-d]pyrimidin-7-yl)isonicotinonitrile] | < 100 nM | < 100 nM | – | – |
| C[C@@H]1CN(c2ncnc3c2c(-c2ccccc2F)cn3-c2cc(F)ccn2)[C@@H](C)CN1C(=O)C(C)(C)O [Compound 169, 1-((2R,5S)-4-(5-(2-fluorophenyl)-7-(4-fluoropyridin-2-yl)-7H-pyrrolo[2,3-d]pyrimidin-4-yl)-2,5-dimethylpiperazin-1-yl)-2-hydroxy-2-methylpropan-1-one] | < 100 nM | 100 to 500 nM | – | – |
| Cc1nccnc1-c1cn(-c2cc(C#N)ccn2)c2ncnc(N3C[C@@H](C)N(C(=O)C(C)C)C[C@@H]3C)c12 [Compound 172, 2-(4-((2S,5R)-4-isobutyryl-2,5-dimethylpiperazin-1-yl)-5-(3-methylpyrazin-2-yl)-7H-pyrrolo[2,3-d]pyrimidin-7-yl)isonicotinonitrile] | 500 to 2000 nM | > 2000 nM | – | – |
| CCCC(=O)N1CCN(c2ncnc3c2c(N2CCC2)cn3-c2cc(C#N)ccn2)C[C@H]1C [Compound 274, (R)-2-(5-(azetidin-1-yl)-4-(4-butyryl-3-methylpiperazin-1-yl)-7H-pyrrolo[2,3-d]pyrimidin-7-yl)isonicotinonitrile] | – | – | < 100 nM | < 100 nM |
| CCN(CC)c1cn(-c2cc(C#N)ccn2)c2ncnc(N3CCN(C(=O)C(C)C)C[C@@H]3C)c12 [Compound 151, (S)-2-(5-(diethylamino)-4-(4-isobutyryl-2-methylpiperazin-1-yl)-7H-pyrrolo[2,3-d]pyrimidin-7-yl)isonicotinonitrile] | 100 to 500 nM | 100 to 500 nM | – | – |
| C[C@H]1CN(C(=O)C(C)(C)F)CCN1c1ncnc2c1c(C1CC1)cn2-c1cc(C#N)ccn1 [Compound 114, (S)-2-(5-cyclopropyl-4-(4-(2-fluoro-2-methylpropanoyl)-2-methylpiperazin-1-yl)-7H-pyrrolo[2,3-d]pyrimidin-7-yl)isonicotinonitrile] | < 100 nM | < 100 nM | – | – |
| C[C@H]1CN(C(=O)C(C)(C)C)CCN1c1ncnc2c1c(N1CCC1)cn2-c1cccc(F)c1 [Compound 216, (S)-1-(4-(5-(azetidin-1-yl)-7-(3-fluorophenyl)-7H-pyrrolo[2,3-d]pyrimidin-4-yl)-3-methylpiperazin-1-yl)-2,2-dimethylpropan-1-one] | – | – | < 100 nM | > 2000 nM |
| C[C@H]1CN(C(=O)C(C)(C)O)CCN1c1ncnc2c1c(N1CCC1)cn2-c1cc(C#N)ccn1 [Compound 162, (S)-2-(5-(azetidin-1-yl)-4-(4-(2-hydroxy-2-methylpropanoyl)-2-methylpiperazin-1-yl)-7H-pyrrolo[2,3-d]pyrimidin-7-yl)isonicotinonitrile] | 100 to 500 nM | 500 to 2000 nM | – | – |
| C[C@@H]1CN(c2ncnc3c2c(-c2ccccc2)cn3-c2cc(C#N)ccn2)CCN1C(=O)C1CC1 [Compound 124, (R)-2-(4-(4-(cyclopropanecarbonyl)-3-methylpiperazin-1-yl)-5-phenyl-7H-pyrrolo[2,3-d]pyrimidin-7-yl)isonicotinonitrile] | 100 to 500 nM | 100 to 500 nM | – | – |
| C[C@H]1CN(C(=O)CC(C)(C)C)CCN1c1ncnc2c1c(C1CC1)cn2-c1cc(C#N)ccn1 [Compound 136, (S)-2-(5-cyclopropyl-4-(4-(3,3-dimethylbutanoyl)-2-methylpiperazin-1-yl)-7H-pyrrolo[2,3-d]pyrimidin-7-yl)isonicotinonitrile] | 100 to 500 nM | 100 to 500 nM | – | – |
| CC(C)CC(=O)N1CCN(c2ncnc3c2c(C2CC2)cn3-c2cc(C#N)ccn2)[C@@H](C)C1 [Compound 137, (S)-2-(5-cyclopropyl-4-(2-methyl-4-(3-methylbutanoyl)piperazin-1-yl)-7H-pyrrolo[2,3-d]pyrimidin-7-yl)isonicotinonitrile] | < 100 nM | > 2000 nM | – | – |
| CC(C)C(=O)N1CCN(c2ncnc3c2c(-c2ccccc2F)cn3-c2cc(C#N)ncn2)[C@@H](C)C1 [Compound 152, (S)-6-(5-(2-fluorophenyl)-4-(4-isobutyryl-2-methylpiperazin-1-yl)-7H-pyrrolo[2,3-d]pyrimidin-7-yl)pyrimidine-4-carbonitrile] | 100 to 500 nM | < 100 nM | – | – |
| Cc1nccnc1-c1cn(-c2cccc(Cl)c2)c2ncnc(N3C[C@@H](C)N(C(=O)C(C)C)C[C@@H]3C)c12 [Compound 175, 1-((2R,5S)-4-(7-(3-chlorophenyl)-5-(3-methylpyrazin-2-yl)-7H-pyrrolo[2,3-d]pyrimidin-4-yl)-2,5-dimethylpiperazin-1-yl)-2-methylpropan-1-one] | 500 to 2000 nM | > 2000 nM | – | – |
| CC(C)C(=O)N1C[C@H](C)N(c2ncnc3c2c(N2CCC2)cn3-c2cc(F)cc(F)c2)C[C@H]1C [Compound 218, 1-((2R,5S)-4-(5-(azetidin-1-yl)-7-(3,5-difluorophenyl)-7H-pyrrolo[2,3-d]pyrimidin-4-yl)-2,5-dimethylpiperazin-1-yl)-2-methylpropan-1-one] | – | – | 100 to 500 nM | 500 to 2000 nM |
